Experimental data as given in patent publication US8575091B1, “Amylin analogues and pharmaceutical compositions thereof” (Novo Nordisk A/S, priority 2012, dated 2013).
Numbered stars: 1 amine (or outer) side, 2 acyl side, 3 side chain; on linkers, the order of the positions; unused ones are H or OH. Bridge positions count the residues as written; N and C are the ends. Side chains are listed from the residue outwards. Peptide text beside a SMILES is read from it. * marks the point of attachment. C20 diacid = O=C(O)CCCCCCCCCCCCCCCCCCC(=O)*; γGlu = O=C(O)[C@H](CCC(=O)[*:2])N[*:1]; AEEA = NCCOCCOCC(=O)O

Key:
[1] = molecular target: T1, human amylin receptor (amylin 3(a) receptor: human calcitonin receptor + RAMP-3) (Homo sapiens, UniProt O60896+P30988); assay: Assay (II)a functional assay, human amylin receptor (CRE luciferase, BHK cells); format: cell-based
T1 construct: expressed in transfected cells
T1 sequence (P30988 25-474): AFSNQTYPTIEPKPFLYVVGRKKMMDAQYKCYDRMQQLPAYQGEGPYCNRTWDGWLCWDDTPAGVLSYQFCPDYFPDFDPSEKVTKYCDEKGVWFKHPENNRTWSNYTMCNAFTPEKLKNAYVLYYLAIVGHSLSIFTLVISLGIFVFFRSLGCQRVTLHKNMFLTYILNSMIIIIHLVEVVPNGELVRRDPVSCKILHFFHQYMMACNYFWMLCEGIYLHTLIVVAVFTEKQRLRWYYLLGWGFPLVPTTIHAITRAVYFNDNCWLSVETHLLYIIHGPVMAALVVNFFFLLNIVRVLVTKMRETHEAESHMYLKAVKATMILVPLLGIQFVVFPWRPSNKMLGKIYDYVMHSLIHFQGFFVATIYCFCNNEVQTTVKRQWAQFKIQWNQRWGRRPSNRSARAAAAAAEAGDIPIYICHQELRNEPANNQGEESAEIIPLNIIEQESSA
T1 sequence (O60896 24-148 partner): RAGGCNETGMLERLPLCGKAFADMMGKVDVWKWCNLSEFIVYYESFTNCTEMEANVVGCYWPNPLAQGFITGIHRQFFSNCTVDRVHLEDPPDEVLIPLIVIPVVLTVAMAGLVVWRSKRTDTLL

human amylin receptor = molecular target: T2, human amylin receptor (Homo sapiens, UniProt O60896+P30988); assay: Assay (V) binding to the human amylin receptor (SPA, 125I-rat amylin)
T2 construct: expressed in transfected cells
T2 sequence (P30988 25-474): T1 sequence (P30988 25-474)
T2 sequence (O60896 24-148 partner): T1 sequence (O60896 24-148 partner)
Procedure: The binding assay was performed using scintillation proximity assay (SPA) beads (RPNQ0001) from PerkinElmer and cell membranes from the Amylin 3(a)/CRE-luc cells (as described in Assay (II)) were used. Membranes were prepared in the following way; the cells were rinsed with PBS and incubated with Versene for approximately 5 min before harvesting. The cells were flushed with PBS and the cell-suspension was centrifuged for 5 min at 1000 rpm. […] The resulting pellet was resuspended in buffer 2 and protein concentration was measured (BCA protein Assay, Pierce). The homogenate was kept cold during the whole procedure. The membranes were kept at −80° C. until use. The assay was performed in a 384 well Optiplate (PerkinElmer) in a total volume of 40 ul. Membranes were mixed with SPA beads. Final concentration of membranes 35 ng/μL final and SPA beads was 0.05 mg/well. Test-compounds were dissolved in DMSO and further diluted in assay buffer (50 mM Hepes, pH 7.4, 1 mM CaCl2, 5 mM MgCl2, 0.1% OA and 0.02% Tween20). […] Samples were analyzed on TopCounter™ (Packard). The IC50 was calculated using (one site binding competition analysis) GraphPad Prism5 as a measure of receptor affinity.

[2] = Table 6, human functional selectivity (hCTR EC50 / hAmylin-R EC50)
[3] = Table 7b, human calcitonin receptor binding IC50 divided by human amylin receptor binding IC50
[4] = Table 7c, human calcitonin receptor binding IC50 divided by human amylin receptor binding IC50
[5] = human binding ratio, included for comparison

SMILES	Ratio hCT/hAmylin funct. [1, 2]	Ratio hCT/hAmylin funct. ([1]; Table 6a, human functional selectivity (hCTR EC50 / hAmylin-R EC50), at least 5)	Ratio hCT/hAmylin funct. ([1]; Table 6i, hCTR funct. EC50 / hAmylin-R funct. EC50)	Ratio hCT/hAmylin binding (human amylin receptor; [3])	Ratio hCT/hAmylin binding (human amylin receptor; [4])	Ratio hCT/hAmylin binding (human amylin receptor; [5])
CC[C@H](C)[C@H](NC(=O)[C@@H]1CCCN1C(=O)CNC(=O)[C@H](Cc1ccccc1)NC(=O)[C@H](CC(N)=O)NC(=O)[C@@H]1CCCN1C(=O)[C@H](CO)NC(=O)[C@H](CO)NC(=O)[C@H](Cc1c[nH]cn1)NC(=O)[C@H](CCCNC(=N)N)NC(=O)[C@H](CC(C)C)NC(=O)[C@H](Cc1ccccc1)NC(=O)[C@H](CCC(=O)O)NC(=O)[C@H](C)NC(=O)[C@H](CC(C)C)NC(=O)[C@H](CCCNC(=N)N)NC(=O)[C@H](CCC(N)=O)NC(=O)[C@@H](NC(=O)[C@H](C)NC(=O)[C@@H]1CSSC[C@H](NC(=O)[C@H](CCCCN)NC(=O)CC[C@H](NC(=O)CCCCCCCCCCCCCCCCCCC(=O)O)C(=O)O)C(=O)N[C@@H](CC(N)=O)C(=O)N[C@@H]([C@@H](C)O)C(=O)N[C@@H](C)C(=O)N[C@@H]([C@@H](C)O)C(=O)N1)[C@@H](C)O)C(=O)N[C@@H](CC(C)C)C(=O)N1CCC[C@H]1C(=O)N1CCC[C@H]1C(=O)N[C@H](C(=O)N[C@@H](CC(N)=O)C(=O)N[C@H](C(=O)NCC(=O)N[C@@H](CO)C(=O)N[C@@H](CC(N)=O)C(=O)N[C@H](C(=O)N[C@@H](Cc1ccc(O)cc1)C(N)=O)[C@@H](C)O)C(C)C)[C@@H](C)O [Example 6] ({C20 diacid-γGlu}-KCNTATCATQRLAEFLRHSSPNFGPILPPTNVGSNTY-NH2; disulfide 2-7)	5.7	5.7	5.7	20.0	20.0	20.0
CC[C@H](C)[C@H](NC(=O)[C@H](C)NC(=O)CNC(=O)[C@H](Cc1ccccc1)NC(=O)[C@H](CC(N)=O)NC(=O)[C@@H]1CCCN1C(=O)[C@H](CO)NC(=O)[C@H](CO)NC(=O)[C@H](Cc1c[nH]cn1)NC(=O)[C@H](CCCNC(=N)N)NC(=O)[C@H](CC(C)C)NC(=O)[C@H](Cc1ccccc1)NC(=O)[C@H](CCC(=O)O)NC(=O)[C@H](C)NC(=O)[C@H](CC(C)C)NC(=O)[C@H](CCCNC(=N)N)NC(=O)[C@H](CCC(N)=O)NC(=O)[C@@H](NC(=O)[C@H](C)NC(=O)[C@@H]1CSSC[C@H](NC(=O)[C@H](CCCCN)NC(=O)CC[C@H](NC(=O)CCCCCCCCCCCCCCCCCCC(=O)O)C(=O)O)C(=O)N[C@@H](CC(N)=O)C(=O)N[C@@H]([C@@H](C)O)C(=O)N[C@@H](C)C(=O)N[C@@H]([C@@H](C)O)C(=O)N1)[C@@H](C)O)C(=O)N1CCC[C@H]1C(=O)N[C@@H](CO)C(=O)N[C@@H](CO)C(=O)N[C@H](C(=O)N[C@@H](CC(N)=O)C(=O)N[C@H](C(=O)NCC(=O)N[C@@H](CO)C(=O)N[C@@H](CC(N)=O)C(=O)N[C@H](C(=O)N1CCC[C@H]1C(N)=O)[C@@H](C)O)C(C)C)[C@@H](C)O [Example 8] ({C20 diacid-γGlu}-KCNTATCATQRLAEFLRHSSPNFGAIPSSTNVGSNTP-NH2; disulfide 2-7)	1.1					0.5
CC[C@H](C)[C@H](NC(=O)[C@H](C)NC(=O)CNC(=O)[C@H](Cc1ccccc1)NC(=O)[C@H](CC(N)=O)NC(=O)[C@@H]1CCCN1C(=O)[C@H](CO)NC(=O)[C@H](CO)NC(=O)[C@H](Cc1c[nH]cn1)NC(=O)[C@H](CCCNC(=N)N)NC(=O)[C@H](CC(C)C)NC(=O)[C@H](Cc1ccccc1)NC(=O)[C@H](CC(=O)O)NC(=O)[C@H](C)NC(=O)[C@H](CC(C)C)NC(=O)[C@H](CCCNC(=N)N)NC(=O)[C@H](CCC(N)=O)NC(=O)[C@@H](NC(=O)[C@H](C)NC(=O)[C@@H]1CSSC[C@H](NC(=O)[C@H](CCCCN)NC(=O)CC[C@H](NC(=O)CCCCCCCCCCCCCCCCCCC(=O)O)C(=O)O)C(=O)N[C@@H](CC(N)=O)C(=O)N[C@@H]([C@@H](C)O)C(=O)N[C@@H](C)C(=O)N[C@@H]([C@@H](C)O)C(=O)N1)[C@@H](C)O)C(=O)N1CCC[C@H]1C(=O)N[C@@H](CO)C(=O)N[C@@H](CO)C(=O)N[C@H](C(=O)N[C@@H](CC(N)=O)C(=O)N[C@H](C(=O)NCC(=O)N[C@@H](CO)C(=O)N[C@@H](CC(N)=O)C(=O)N[C@H](C(=O)N1CCC[C@H]1C(N)=O)[C@@H](C)O)C(C)C)[C@@H](C)O [Example 10] ({C20 diacid-γGlu}-KCNTATCATQRLADFLRHSSPNFGAIPSSTNVGSNTP-NH2; disulfide 2-7)	1.0					1.2
CC[C@H](C)[C@H](NC(=O)[C@H](C)NC(=O)CNC(=O)[C@H](Cc1ccccc1)NC(=O)[C@H](CC(N)=O)NC(=O)[C@@H]1CCCN1C(=O)[C@H](CO)NC(=O)[C@H](CO)NC(=O)[C@H](Cc1c[nH]cn1)NC(=O)[C@H](CCCNC(=N)N)NC(=O)[C@H](CC(C)C)NC(=O)[C@H](Cc1ccccc1)NC(=O)[C@H](Cc1c[nH]cn1)NC(=O)[C@H](C)NC(=O)[C@H](CC(C)C)NC(=O)[C@H](CCCNC(=N)N)NC(=O)[C@H](CCC(N)=O)NC(=O)[C@@H](NC(=O)[C@H](C)NC(=O)[C@@H]1CSSC[C@H](NC(=O)[C@@H](N)CCCCNC(=O)CC[C@H](NC(=O)CCCCCCCCCCCCCCCCCCC(=O)O)C(=O)O)C(=O)N[C@@H](CC(N)=O)C(=O)N[C@@H]([C@@H](C)O)C(=O)N[C@@H](C)C(=O)N[C@@H]([C@@H](C)O)C(=O)N1)[C@@H](C)O)C(=O)N1CCC[C@H]1C(=O)N[C@@H](CO)C(=O)N[C@@H](CO)C(=O)N[C@H](C(=O)N1CCC[C@H]1C(=O)N[C@H](C(=O)NCC(=O)N[C@@H](CO)C(=O)N[C@@H](CC(N)=O)C(=O)N[C@H](C(=O)N[C@@H](Cc1ccc(O)cc1)C(N)=O)[C@@H](C)O)C(C)C)[C@@H](C)O [Example 62] (H-K([γGlu-C20 diacid])CNTATCATQRLAHFLRHSSPNFGAIPSSTPVGSNTY-NH2; disulfide 2-7; N-terminus assumed)				63.0	63.0	63.0
CC[C@H](C)[C@H](NC(=O)[C@H](C)NC(=O)CNC(=O)[C@H](Cc1ccccc1)NC(=O)[C@H](CC(N)=O)NC(=O)[C@@H]1CCCN1C(=O)[C@H](CO)NC(=O)[C@H](CO)NC(=O)[C@H](Cc1c[nH]cn1)NC(=O)[C@H](CCCNC(=N)N)NC(=O)[C@H](CC(C)C)NC(=O)[C@H](Cc1ccccc1)NC(=O)[C@H](CC(N)=O)NC(=O)[C@H](C)NC(=O)[C@H](CC(C)C)NC(=O)[C@H](CCCNC(=N)N)NC(=O)[C@H](CCC(N)=O)NC(=O)[C@@H](NC(=O)[C@H](C)NC(=O)[C@@H]1CSSC[C@H](NC(=O)[C@@H](N)CCCCNC(=O)COCCOCCNC(=O)CC[C@H](NC(=O)CCCCCCCCCCCCCCCCCCC(=O)O)C(=O)O)C(=O)N[C@@H](CC(N)=O)C(=O)N[C@@H]([C@@H](C)O)C(=O)N[C@@H](C)C(=O)N[C@@H]([C@@H](C)O)C(=O)N1)[C@@H](C)O)C(=O)N1CCC[C@H]1C(=O)N[C@@H](CO)C(=O)N[C@@H](CO)C(=O)N[C@H](C(=O)N[C@@H](CC(N)=O)C(=O)N[C@H](C(=O)NCC(=O)N[C@@H](Cc1c[nH]cn1)C(=O)N[C@@H](CC(N)=O)C(=O)N[C@H](C(=O)N[C@@H](Cc1ccc(O)cc1)C(N)=O)[C@@H](C)O)C(C)C)[C@@H](C)O [Example 76] (H-K([AEEA-γGlu-C20 diacid])CNTATCATQRLANFLRHSSPNFGAIPSSTNVGHNTY-NH2; disulfide 2-7 (inferred); N-terminus and C-terminus assumed)				80.0	80.0	80.0
